Values quoted from earlier work, collected in patent US20090203685A1, “ANTI-PROLIFERATIVE COMPOUNDS FROM A 3-ARYL-COUMARINE OR 3-ARYL-QUINOLIN-2-ONE AND USES THEREOF” (EOS (ETHICAL ONCOLOGY SCIENCE) S.P.A., priority 2006, published 2009).

How the values were obtained:
[1] = tested on: small cell lung carcinoma (SCLC) and lymphoid cells; conditions: cited from earlier work
[2] = tested on: SCLC tumor; conditions: in vivo; cited from earlier work
[3] = in vivo; cited from earlier work
[4] = tested on: melanoma, breast, cervical, prostate, colon tumor cells; conditions: cited from earlier work

Row | SMILES | Apoptosis of SCLC and lymphoid cells [1] | SCLC tumor regression in mouse models [2] | MTD (maximal tolerated dose) [3] | Growth of melanoma, breast, cervical, prostate, colon tumor cells [4]
1 | CN(C)CC[C@H](CSc1ccccc1)Nc1ccc(S(=O)(=O)NC(=O)c2ccc(N3CCN(Cc4ccccc4-c4ccc(Cl)cc4)CC3)cc2)cc1[N+](=O)[O-] [ABT-737] | induces apoptosis | induces SCLC tumor regression | – | –
2 | COC1=CC(c2cc3ccccc3[nH]2)=N/C1=C\c1[nH]c(C)cc1C [GX15-070] | – | – | approx 16 mg/kg | inhibit growth
